Test results reported in patent publication US6673902B2, “Cyclin D binding factor, and uses thereof” (St. Jude Children's Research Hospital, priority 1996, dated 2004).

Legend:
[1] = test system: promoters lacking BS2 sites or containing Ets-specific M3 sites; assay: Transactivation of reporters lacking BS2 sites or containing M3 sites in 293T cells; type: cell-based, human
Text: An XbaI-EcoRV fragment containing the entire DMP1 coding sequence is subcloned by blunt end ligation into a SpeI-XbaI fragment of the Rc/RSV vector (Invitrogen, La Jolla Calif.) to enable DMP1 expression in mammalian cells. 6×concatamerized BS1, 8×concatamerized, BS2, or 7×concatamerized M3 oligonucleotides (FIG. 5B) are inserted into the XhoI-SmaI sites of pGL2 (Pfornega) 5′ to a minimal simian virus 40 (SV40) early promoter driving firefly luciferase gene expression. The latter “reporter” plasmid (1 μg) together with increasing amounts of pRc/RSV-DMP1 expression plasmid compensated by decreasing quantities of control pRc/RSV DNA (total of both=2.5 μg) were transfected into 293T cells (1.5×10^6 cells per 60 mm diameter culture dish) by calcium phosphate precipitation (7). Two days later, cells were harvested, washed three times with PBS, and lysed in 1 ml of 25 mM glycylglycine (Sigma), pH 7.8, 15 mM MgSO4, 4 mM EDTA, 1 mM DTT, and 1% Triton X-100. After clearing by centrifugation, 50 μl aliquots were assayed diluted to 350 μl using 15 mM potassium phosphate buffer, pH 7.8, containing 15 mM MgSO4, 4 mM EGTA, 2 mM ATP, 1 mM DTT, and 67 uM luciferin (Sigma). Total light emission was measured for duplicate samples during the initial 20 seconds after luciferin injection with an Optocomp I luminometer (MGM Instruments, Hamden Conn.). […]

GST-Ets2 fusion protein = biological target: T1, GST-Ets2 fusion protein (Homo sapiens, UniProt P15036); assay: EMSA competition with bacterial GST-Ets2 fusion protein; type: binding; details: excess unlabeled oligonucleotide
T1 construct: made in house; host or cells: bacteria
T1 sequence (P15036 363-443 limits assumed): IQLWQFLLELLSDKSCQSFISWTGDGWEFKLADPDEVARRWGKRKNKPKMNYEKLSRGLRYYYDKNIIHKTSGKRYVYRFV
Method: Double-stranded oligonucleotides containing potential DMP1 binding sites (BS1 and BS2) and mutated versions (M1-M4) (FIG. 5B) are end-labeled with ^32P using the Klenow fragment of DNA polymerase and α-^32P-dATP (6000 Ci/mmol; Dupont NEN) (8). Nuclear extracts from mouse NIH-3T3 or CTLL cells are prepared with buffer containing 0.4 M NaCl (2). Mammalian cell extracts (15 μg protein) or Sf9 lysates (corresponding to 5×10^2 infected cells) containing ˜4 ng recombinant DMP1 are mixed with 3 ng of ^32P-labeled probe (1×10^5 cpm) in 15 ul Binding buffer containing 2.5 μg of poly(dI-dC) and 2.5 μg BSA and incubated at 4° C. for 30 minutes. For competition experiments, the indicated amounts of unlabeled oligonucleotides are added to the reactions before addition of the labeled probe. In some experiments, a bacterially produced GST-Ets2 fusion protein containing the complete Ets2 DNA-binding domain (10) is used in place of Sf9 extracts containing recombinant DMP1. Protein-DNA complexes are separated on nondenaturing 4% polyacrylamide gels as described (8). Where indicated, antiserum to DMP1 together with 2.5 μg salmon testis DNA (Sigma; used to reduce nonspecific DNA binding activity caused by serum addition) is preincubated with extracts for 30 minutes at 4° C. prior to initiation of binding reactions. Immune complexes are either removed by adsorption to protein A-Sepharose beads (immunodepletion experiments) or are allowed to remain (“supershift” experiments).
Using electrophoretic mobility shift assays (EMSA) performed after mixing a titrated excess (3 ng) of ^32P-end labeled BS1 probe with Sf9 lysates producing DMP1 (˜4 ng recombinant protein per reaction), a BS1-containing protein complex is detected that was competed with an excess of unlabeled BS1 oligonucleotide but not with mutant oligonucleotides M1 and M2 (FIG. 6A). […] More subtle mutations within this region may be tolerated, because high concentrations of M4 competed for BS1 binding to both Ets2 and DMP1 in subsequent studies (FIG. 5B and see below). DMP1 also binds a BS2 probe, and the binding is competed by excess BS2 or BS1 (FIG. 6B). In agreement with the site selection frequencies (FIG. 5A), binding of ^32P-BS1 under equivalent conditions was competed more efficiently by excess unlabeled BS1 than by BS2 (FIG. 6B). […] In agreement, Ets2 binding to BS1 could be competed with excess unlabeled BS1 and M3, but not by BS2 (FIG. 6C). Therefore, although both DMP1 and Ets2 can each bind to BS1 sequences, their exclusive interactions with BS2 and M3, respectively, help to distinguish DMP1 and Ets binding activities (summarized in FIG. 5B).

Substance | transactivation [1] | competition for BS1 binding to Ets2 (GST-Ets2 fusion protein)
DMP1: murine cyclin D-associated myb-like transcription factor, 761 amino acids, SEQ ID NO:1 | not observed | 
M3: DMP1 deletion mutant (NcoI), amino acids 1-458 of SEQ ID NO:1 |  | competed
